Tests used:
CD36 = test: Fatty acid uptake gene CD36 in HepG2 cells, RT-PCR; format: cell-based, human; settings: 100 μM, 24 hours; FIG. 9a
Protocol: (§1) HepG2 cells (1×10^6 cells/well) were seeded on a 60-dish, and cultured overnight in a DMEM containing 10% FBS. The HepG2 cells were maintained at 37° C. in a humidification thermostat containing 5% CO2 and 95% air. After culturing, the HepG2 cells were treated with JC1-38, JC1-40, and JC1-42 at a concentration of 100 μM for 24 hours. After treatment, effects thereof on transcriptional activity were analyzed by RT-PCR analysis. The PCR was performed using the following primers respectively specific to CD36 (see FIG. 9a) involved in fatty acid uptake and MTTP and ApoB100 (see FIG. 9b), which are involved in the secretion of very low density lipoproteins: […]

[1] = Chemical stability of JC1 compounds; format: physicochemical
LXRα = test: Transcriptional activity of LXRα, LXRE-Luc reporter in HepG2 cells treated with T17; format: cell-based, human; settings: 1 μM, 10 μM, 20 μM, 50 μM, and 100 μM with 1 μM T17, 24 hours; FIG. 5a
Protocol: A human hepatoma cell line and HepG2 (ATCC HB 8065) were purchased from ATCC. HepG2 cells (1.2×10^5 cells/well) were seeded on a 24-well culture plate and cultured overnight in a DMEM containing 10% FBS. The HepG2 cells were maintained at 37° C. in a humidification thermostat containing 5% CO2 and 95% air. After culturing, the HepG2 cells were transformed with LXRE-Luc reporter (0.1 μg) using Welfect-EXTM Plus (WelGENE Inc., Korea). 24 hours after transformation, the HepG2 cells were treated with particular concentrations (1 μM, 10 μM, 20 μM, 50 μM, and 100 μM) of JC1-38, JC1-40, and JC1-42 and 1 μM T17 (T0901317), which is a ligand of LXRα, for 24 hours. Subsequently, cell lysates were collected, and luciferase activity was analyzed and determined using an analytical luminescence luminometer. The luciferase activity was standardized by β-gal activity to determine transcriptional activity, and data was attained as the mean and SD for two or three independent experimental results, and the results thereof are illustrated in FIG. 5a.

HMGCS2 = test: Fatty acid oxidation gene HMGCS2 in HepG2 cells, real-time RT-PCR; format: cell-based, human; settings: 100 μM, 24 hours; FIG. 8
Protocol: as §1, with “60-dish” for “60-dish,”, “real-time reverse transcriptase-polymerase chain reaction (real-time RT-PCR)” for “RT-PCR”, “MCAD, ACO1, ACO2, HMGCS2, CPT-1, and ACS, which are” for “CD36 (see FIG. 9a)”, “oxidation:” for “uptake and MTTP and ApoB100 (see FIG. 9b), which are involved in the secretion of very low density lipoproteins:”

MCAD = test: Fatty acid oxidation gene MCAD in HepG2 cells, real-time RT-PCR; format: cell-based, human; settings: 100 μM, 24 hours; FIG. 8
Protocol: as §1, with “60-dish” for “60-dish,”, “real-time reverse transcriptase-polymerase chain reaction (real-time RT-PCR)” for “RT-PCR”, “MCAD, ACO1, ACO2, HMGCS2, CPT-1, and ACS, which are” for “CD36 (see FIG. 9a)”, “oxidation:” for “uptake and MTTP and ApoB100 (see FIG. 9b), which are involved in the secretion of very low density lipoproteins:”

ACO1 = test: Fatty acid oxidation gene ACO1 in HepG2 cells, real-time RT-PCR; format: cell-based, human; settings: 100 μM, 24 hours; FIG. 8
Protocol: as §1, with “60-dish” for “60-dish,”, “real-time reverse transcriptase-polymerase chain reaction (real-time RT-PCR)” for “RT-PCR”, “MCAD, ACO1, ACO2, HMGCS2, CPT-1, and ACS, which are” for “CD36 (see FIG. 9a)”, “oxidation:” for “uptake and MTTP and ApoB100 (see FIG. 9b), which are involved in the secretion of very low density lipoproteins:”

CPT-1 = test: Fatty acid oxidation gene CPT-1 in HepG2 cells, real-time RT-PCR; format: cell-based, human; settings: 100 μM, 24 hours; FIG. 8
Protocol: as §1, with “60-dish” for “60-dish,”, “real-time reverse transcriptase-polymerase chain reaction (real-time RT-PCR)” for “RT-PCR”, “MCAD, ACO1, ACO2, HMGCS2, CPT-1, and ACS, which are” for “CD36 (see FIG. 9a)”, “oxidation:” for “uptake and MTTP and ApoB100 (see FIG. 9b), which are involved in the secretion of very low density lipoproteins:”

RORα = biological target: T1, RORα (Homo sapiens, UniProt P35398); test: Transcriptional activity of RORα according to concentration, RORE-Luc reporter and Flag-RORα vector in CV-1 cells (Experimental Example 2); format: cell-based; settings: for transcriptional activity of RORα / activity of RORα at low concentrations: 1 μM; for transcriptional activity of RORα: 10 μM, 20 μM, 50 μM, and 100 μM, 24 hours, FIG. 4; for activity of RORα at low concentrations: 10 μM, and 20 μM; for effect of increasing the activity of RORα compared with melatonin: 50 μM to 100 μM, melatonin 100 μM
T1 construct: expressed in transfected cells; host or cells: CV-1 cells (ATCC CCL-70)
T1 sequence (P35398 1-523): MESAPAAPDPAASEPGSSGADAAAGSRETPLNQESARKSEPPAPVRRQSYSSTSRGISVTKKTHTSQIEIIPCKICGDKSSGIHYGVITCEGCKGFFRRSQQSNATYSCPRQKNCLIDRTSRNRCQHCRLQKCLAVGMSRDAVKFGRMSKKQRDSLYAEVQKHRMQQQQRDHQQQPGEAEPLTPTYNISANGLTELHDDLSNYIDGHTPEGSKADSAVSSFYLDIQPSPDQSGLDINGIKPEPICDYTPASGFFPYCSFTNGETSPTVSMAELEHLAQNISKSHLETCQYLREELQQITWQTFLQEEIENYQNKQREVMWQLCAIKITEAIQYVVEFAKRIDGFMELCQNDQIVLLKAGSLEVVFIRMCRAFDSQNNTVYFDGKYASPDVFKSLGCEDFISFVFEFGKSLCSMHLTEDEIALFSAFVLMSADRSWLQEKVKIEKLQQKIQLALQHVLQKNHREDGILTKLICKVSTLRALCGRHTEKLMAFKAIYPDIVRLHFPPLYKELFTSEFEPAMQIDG
Protocol: CV-1 cells (4×10^4 cells/well) were seeded on a 24-well culture plate and cultured overnight in a DMEM containing 10% FBS. The CV-1 cells were maintained at 37° C. in a humidification thermostat containing 5% CO2 and 95% air. After culturing, the CV-1 cells were transformed with RORE-Luc reporter (0.05 μg) and Flag-RORα vector (0.005 μg) using calcium phosphate. […] Subsequently, cell lysates were collected, and luciferase activity was analyzed and determined using an analytical luminescence luminometer. The luciferase activity was standardized by β-gal activity to determine transcriptional efficiency, and data was attained as the mean and SD for two or three independent experimental results, and the results thereof are illustrated in FIG. 4.

ACS = test: Fatty acid oxidation gene ACS in HepG2 cells, real-time RT-PCR; format: cell-based, human; settings: 100 μM, 24 hours; FIG. 8
Protocol: as §1, with “60-dish” for “60-dish,”, “real-time reverse transcriptase-polymerase chain reaction (real-time RT-PCR)” for “RT-PCR”, “MCAD, ACO1, ACO2, HMGCS2, CPT-1, and ACS, which are” for “CD36 (see FIG. 9a)”, “oxidation:” for “uptake and MTTP and ApoB100 (see FIG. 9b), which are involved in the secretion of very low density lipoproteins:”

MTTP = test: VLDL secretion gene MTTP in HepG2 cells, RT-PCR; format: cell-based, human; settings: 100 μM, 24 hours; FIG. 9b
Protocol: as §1

chemical stability [1]	activity of RORα at low concentrations (RORα)	SMILES	transcriptional activity of CD36 (CD36)	transcriptional activity of LXRα, which had been increased by T17 (LXRα)	transcriptional activity of HMGCS2 (HMGCS2)	transcriptional activity of MCAD (MCAD)	transcriptional activity of ACO1 (ACO1)	transcriptional activity of CPT-1 (CPT-1)	transcriptional activity of RORα (RORα)	effect of increasing the activity of RORα compared with melatonin (RORα)	transcriptional activity of ACS (ACS)	transcriptional activity of MTTP (MTTP)
highly chemically stable	insignificantly increased	CNC(=S)NCc1ccc(OCc2ccccc2)cc1 [Compound 40, 1-(4-benzyloxy-benzyl)-3-methyl-thiourea]	decreased	decreased in a manner dependent on the concentration	increased	increased	increased	increased	increased in a manner dependent on the concentration	comparable to or surpassed the effect provided by melatonin	increased	increased
highly chemically stable	insignificantly increased	CNC(=S)NCc1ccc(Oc2ccccc2)cc1 [Compound 42, 1-(4-phenoxy-benzyl)-3-methyl-thiourea]	decreased	decreased in a manner dependent on the concentration	increased	increased	increased	increased	increased in a manner dependent on the concentration	comparable to or surpassed the effect provided by melatonin	increased	increased

SMILES	chemical stability [1]	activity of RORα at low concentrations (RORα)	transcriptional activity of CD36 (CD36)	transcriptional activity of LXRα, which had been increased by T17 (LXRα)	transcriptional activity of HMGCS2 (HMGCS2)	transcriptional activity of MCAD (MCAD)	transcriptional activity of ACO1 (ACO1)	transcriptional activity of CPT-1 (CPT-1)	transcriptional activity of RORα (RORα)	effect of increasing the activity of RORα compared with melatonin (RORα)	transcriptional activity of ACS (ACS)	transcriptional activity of MTTP (MTTP)
CNC(=S)NCc1ccccc1-c1ccncc1 [Compound 38, 1-methyl-3-(4-pyridinyl-2-benzyl)-thiourea]	highly chemically stable	insignificantly increased	decreased	decreased in a manner dependent on the concentration	increased	increased	increased	increased	increased in a manner dependent on the concentration	comparable to or surpassed the effect provided by melatonin	increased	increased

From patent US10407388B2, “Thiourea derivatives as activators of RORα and pharmaceutical composition containing same” (SEOUL NATIONAL UNIVERSITY R & DB FOUNDATION, priority 2011, dated 2019)
